Data taken from the NIST ThermoML archive (doi:10.1016/j.jct.2013.04.003).
Numbers after ± are expanded uncertainties.

Conditions: 313.15 K; Liquid; Closed cell (Static) method

Row | vapor or sublimation pressure [kPa] | SMILES
1 | 44.98 ± 0.2 | C=CCCCC [hex-1-ene]
2 | 2.483 ± 0.015 | CCCCO [butan-1-ol]
3 | 12.95 ± 0.031 | CC(C)CC(C)(C)C [2,2,4-trimethylpentane]
